Laboratory results taken from publication PMC9443684 (RSC Advances, 2022).
Each block holds one compound with its values, some of them ahead of it.

Columns and labels:
[1] = test system: MCF-7 cancer cell line; assay: MTT assay, anticancer activity against MCF-7; assay type: cell-based; settings: Homo sapiens; for IC50: MCF7, 48 h, read-out: Anticancer activity IC50; for inhibition at 10 µM: MCF7, read-out: Cell growth inhibition (GI%)
[2] = test system: HepG2 cancer cell line; assay: MTT assay, anticancer activity against HepG2; assay type: cell-based; settings: Homo sapiens; for IC50: HepG2, 48 h, read-out: Anticancer activity IC50; for inhibition at 10 µM: HepG2, read-out: Cell growth inhibition (GI%)
[3] = test system: HCT-116 cancer cell line; assay: MTT assay, anticancer activity against HCT-116; assay type: cell-based; settings: Homo sapiens; for IC50: HCT-116, 48 h, read-out: Anticancer activity IC50; for inhibition at 10 µM: HCT-116, read-out: Cell growth inhibition (GI%)
[4] = target: T1, COX-1 (Ovis aries, UniProt P05979); assay: In vitro cyclooxygenase; assay type: biochemical, ovine
T1 sequence (P05979 25-600): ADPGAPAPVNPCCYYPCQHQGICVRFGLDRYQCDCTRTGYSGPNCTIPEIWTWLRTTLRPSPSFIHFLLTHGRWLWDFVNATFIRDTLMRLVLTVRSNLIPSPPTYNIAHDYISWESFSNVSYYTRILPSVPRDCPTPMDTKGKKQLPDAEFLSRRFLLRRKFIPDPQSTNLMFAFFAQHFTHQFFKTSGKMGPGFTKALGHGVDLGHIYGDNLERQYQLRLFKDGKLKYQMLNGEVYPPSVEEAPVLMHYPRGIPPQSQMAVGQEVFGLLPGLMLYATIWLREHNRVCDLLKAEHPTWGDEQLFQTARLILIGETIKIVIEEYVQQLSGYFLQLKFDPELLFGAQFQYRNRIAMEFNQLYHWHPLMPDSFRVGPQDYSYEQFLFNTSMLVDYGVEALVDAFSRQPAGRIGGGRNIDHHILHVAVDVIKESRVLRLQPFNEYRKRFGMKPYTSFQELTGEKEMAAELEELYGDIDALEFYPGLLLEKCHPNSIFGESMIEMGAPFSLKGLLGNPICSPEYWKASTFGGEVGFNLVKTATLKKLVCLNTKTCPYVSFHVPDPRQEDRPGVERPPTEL

[5] = target: T2, COX-2 (Ovis aries, UniProt P79208); assay: In vitro cyclooxygenase; assay type: biochemical, ovine; settings: for SI (selectivity index): IC50 (COX-1)/IC50 (COX-2)
T2 sequence (P79208 17-603): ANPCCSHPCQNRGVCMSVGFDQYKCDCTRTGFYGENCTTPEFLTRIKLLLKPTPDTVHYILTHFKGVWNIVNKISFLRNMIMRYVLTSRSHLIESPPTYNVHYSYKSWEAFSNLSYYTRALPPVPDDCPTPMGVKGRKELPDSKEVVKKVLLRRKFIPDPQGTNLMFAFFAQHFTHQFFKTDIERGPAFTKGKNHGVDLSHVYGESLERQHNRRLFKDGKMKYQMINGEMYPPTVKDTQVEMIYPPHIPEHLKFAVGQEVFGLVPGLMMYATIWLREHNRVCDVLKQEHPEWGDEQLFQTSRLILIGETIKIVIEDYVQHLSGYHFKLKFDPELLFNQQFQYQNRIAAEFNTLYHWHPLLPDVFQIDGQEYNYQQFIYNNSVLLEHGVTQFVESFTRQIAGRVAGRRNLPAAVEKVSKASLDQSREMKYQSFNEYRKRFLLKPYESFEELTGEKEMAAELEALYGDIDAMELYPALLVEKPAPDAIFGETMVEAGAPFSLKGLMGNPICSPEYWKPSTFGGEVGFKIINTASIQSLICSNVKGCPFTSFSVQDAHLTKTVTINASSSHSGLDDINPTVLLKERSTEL

[6] = target: EGFR (Homo sapiens, UniProt P00533); assay: In vitro EGFR-TK inhibition assay; assay type: biochemical
Chain of EGFR (P00533 25-1210): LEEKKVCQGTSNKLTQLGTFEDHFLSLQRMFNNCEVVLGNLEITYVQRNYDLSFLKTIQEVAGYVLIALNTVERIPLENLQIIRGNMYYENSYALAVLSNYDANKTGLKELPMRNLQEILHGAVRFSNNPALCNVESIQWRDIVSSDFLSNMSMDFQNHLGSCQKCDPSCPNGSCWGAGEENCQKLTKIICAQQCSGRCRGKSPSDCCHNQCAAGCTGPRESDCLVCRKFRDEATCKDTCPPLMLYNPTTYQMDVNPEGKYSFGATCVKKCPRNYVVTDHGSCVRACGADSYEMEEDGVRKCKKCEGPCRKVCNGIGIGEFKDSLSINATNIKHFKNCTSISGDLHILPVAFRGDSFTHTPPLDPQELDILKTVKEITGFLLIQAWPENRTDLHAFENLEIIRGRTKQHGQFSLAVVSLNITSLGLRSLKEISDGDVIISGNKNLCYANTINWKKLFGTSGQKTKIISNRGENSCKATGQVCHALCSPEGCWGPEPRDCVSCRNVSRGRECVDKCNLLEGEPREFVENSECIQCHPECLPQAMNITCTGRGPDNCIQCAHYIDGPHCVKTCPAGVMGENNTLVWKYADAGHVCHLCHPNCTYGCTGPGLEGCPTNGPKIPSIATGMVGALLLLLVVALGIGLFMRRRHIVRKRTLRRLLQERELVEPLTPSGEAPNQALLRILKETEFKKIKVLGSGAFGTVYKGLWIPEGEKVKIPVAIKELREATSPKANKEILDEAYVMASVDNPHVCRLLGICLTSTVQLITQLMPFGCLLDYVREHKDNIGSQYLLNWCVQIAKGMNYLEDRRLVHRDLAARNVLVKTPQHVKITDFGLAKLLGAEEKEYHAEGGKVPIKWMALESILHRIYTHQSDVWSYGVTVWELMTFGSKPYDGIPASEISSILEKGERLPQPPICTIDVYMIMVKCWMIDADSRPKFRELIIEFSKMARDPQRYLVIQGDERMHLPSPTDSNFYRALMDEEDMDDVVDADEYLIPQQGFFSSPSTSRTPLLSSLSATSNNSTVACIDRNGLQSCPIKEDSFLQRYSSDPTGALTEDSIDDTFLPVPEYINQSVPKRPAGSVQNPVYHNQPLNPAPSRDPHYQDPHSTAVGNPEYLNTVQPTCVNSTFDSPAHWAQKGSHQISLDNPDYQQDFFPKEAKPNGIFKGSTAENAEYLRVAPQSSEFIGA

[7] = test system: MCF-7, HepG2 and HCT-116 cancer cell lines; assay: MTT assay, statements over the three cancer cell lines together; assay type: cell-based; settings: for IC50: read-out: Anticancer activity IC50 against the three cancer cell lines; for inhibition at 10 µM: read-out: Growth inhibition against the three cancer cell lines

SMILES: Cn1c(=O)c(C(=O)NNC(=S)Nc2ccccc2)nc2ccccc21 [Compound 13, 2-(4-Methyl-3-oxo-3,4-dihydroquinoxaline-2-carbonyl)-N-phenylhydrazine-carbothioamide]
IC50 [1]: 0.81 ± 0.13 µM | inhibition at 10 µM [1]: 95.39 ± 0.27% | IC50 [2]: 0.96 ± 0.09 µM | inhibition at 10 µM [2]: 96.75 ± 0.29% | IC50 [3]: 1.12 ± 0.19 µM | inhibition at 10 µM [3]: 97.87 ± 0.19% | IC50 [4]: 30.4 ± 1.63 µM | IC50 [5]: 0.46 ± 0.06 µM | SI (selectivity index) [5]: 66.11 | IC50 [6]: 0.4 ± 0.02 µM | IC50 [7]: 0.81 to 2.91 µM | inhibition at 10 µM [7]: ≥ 88.7%

SMILES: Cn1c(=O)c(C(=O)NN=Cc2ccc(O)cc2)nc2ccccc21 [Compound 2c, N′-(4-hydroxybenzylidene)-4-methyl-3-oxo-3,4-dihydroquinoxaline-2-carbohydrazide]
inhibition at 10 µM [1]: 69.72 ± 0.46% | inhibition at 10 µM [2]: 77.95 ± 0.56% | inhibition at 10 µM [3]: 61.92 ± 0.55% | inhibition at 10 µM [7]: ≥ 88.7%

SMILES: Cn1c(=O)c(C(=O)N/N=C/C(O)C(O)C(O)CO)nc2ccccc21 (stereo not drawn) [Compound 6, (E)-4-Methyl-3-oxo-N′-(2,3,4,5-tetrahydroxypentylidene)-3,4-dihydroquinoxaline-2-carbohydrazide]
inhibition at 10 µM [1]: 10.8 ± 0.76% | inhibition at 10 µM [2]: 21.4 ± 0.52% | inhibition at 10 µM [3]: 41.8 ± 1.27%

SMILES: Cn1c(=O)c(C(=O)NNC(=O)CC(=O)c2ccccc2)nc2ccccc21 [Compound 11, 4-Methyl-3-oxo-N′-(3-oxo-3-phenylpropanoyl)-3,4-dihydroquinoxaline-2-carbohydrazide]
IC50 [1]: 2.91 ± 0.23 µM | inhibition at 10 µM [1]: 92.57 ± 0.43% | IC50 [2]: 2.41 ± 0.07 µM | inhibition at 10 µM [2]: 92.78 ± 0.38% | IC50 [3]: 2.38 ± 0.26 µM | inhibition at 10 µM [3]: 97.63 ± 0.16% | IC50 [4]: 38 ± 0.66 µM | IC50 [5]: 0.62 ± 0.07 µM | SI (selectivity index) [5]: 61.23 | IC50 [6]: 0.6 ± 0.04 µM | IC50 [7]: 0.81 to 2.91 µM | inhibition at 10 µM [7]: ≥ 88.7%

SMILES: Cn1c(=O)c(-c2nnco2)nc2ccccc21 [Compound 14, 1-Methyl-3-(1,3,4-oxadiazol-2-yl)quinoxalin-2(1H)-one]
inhibition at 10 µM [1]: 29.3 ± 0.63% | inhibition at 10 µM [2]: 25.7 ± 1.67% | inhibition at 10 µM [3]: 33.3 ± 1.32%

SMILES: CN1C(=O)/C(=N\NC(=O)c2nc3ccccc3n(C)c2=O)c2ccccc21 [Compound 4b, (Z)-4-Methyl-N′-(1-methyl-2-oxoindolin-3-ylidene)-3-oxo-3,4-dihydroquinoxaline-2-carbohydrazide]
inhibition at 10 µM [1]: 61.47 ± 0.37% | inhibition at 10 µM [2]: 52.4 ± 0.74% | inhibition at 10 µM [3]: 59.46 ± 0.27%

SMILES: C/C(=N\NC(=O)c1nc2ccccc2n(C)c1=O)c1cc2ccccc2oc1=O [Compound 5, (E)-4-Methyl-3-oxo-N′-(1-(2-oxo-2H-chromen-3-yl)ethylidene)-3,4-dihydroquinoxaline-2-carbohydrazide]
IC50 [1]: 3.21 ± 0.1 µM | inhibition at 10 µM [1]: 91.47 ± 0.25% | IC50 [2]: 3.62 ± 0.21 µM | inhibition at 10 µM [2]: 90.79 ± 0.21% | IC50 [3]: 3.46 ± 0.15 µM | inhibition at 10 µM [3]: 93.75 ± 0.29% | IC50 [4]: 40.3 ± 3.35 µM | IC50 [5]: 0.83 ± 0.4 µM | SI (selectivity index) [5]: 48.58 | IC50 [6]: 0.9 ± 0.01 µM | IC50 [7]: 3.21 to 4.54 µM | inhibition at 10 µM [7]: ≥ 88.7%

SMILES: Cn1c(=O)c(C(=O)NN=Cc2ccccc2)nc2ccccc21 [Compound 2a, N′-benzylidene-4-methyl-3-oxo-3,4-dihydroquinoxaline-2-carbohydrazide]
inhibition at 10 µM [1]: 82.85 ± 0.49% | inhibition at 10 µM [2]: 89.21 ± 0.63% | inhibition at 10 µM [3]: 69.25 ± 0.45%

SMILES: Cn1c(=O)c(C(=O)N/N=C/C(O)C(O)C(O)C(O)CO)nc2ccccc21 (stereo not drawn) [Compound 7, (E)-4-Methyl-3-oxo-N′-(2,3,4,5,6-pentahydroxyhexylidene)-3,4-dihydroquinoxaline-2-carbohydrazide]
inhibition at 10 µM [1]: 10.3 ± 0.48% | inhibition at 10 µM [2]: 26.4 ± 0.83% | inhibition at 10 µM [3]: 33.9 ± 1.27%

SMILES: Cn1c(=O)c(-c2n[nH]c(=S)o2)nc2ccccc21 [Compound 15, 1-Methyl-3-(5-thioxo-4,5-dihydro-1,3,4-oxadiazol-2-yl)quinoxalin-2(1H)-one]
inhibition at 10 µM [1]: 43.5 ± 0.63% | inhibition at 10 µM [2]: 59.5 ± 1.92% | inhibition at 10 µM [3]: 76.3 ± 1.22%

SMILES: Cc1cc(C)n(C(=O)c2nc3ccccc3n(C)c2=O)n1 [Compound 12, 3-(3,5-Dimethyl-1H-pyrazole-1-carbonyl)-1-methylquinoxalin-2(1H)-one]
inhibition at 10 µM [1]: 33.5 ± 0.82% | inhibition at 10 µM [2]: 53.8 ± 1.38% | inhibition at 10 µM [3]: 49.2 ± 1.23%

SMILES: Cn1c(=O)c(C(=O)N/N=C/c2ccc(Cl)cc2)nc2ccccc21 [Compound 2b, (E)-N′-(4-chlorobenzylidene)-4-methyl-3-oxo-3,4-dihydroquinoxaline-2-carbohydrazide]
IC50 [1]: 15.98 ± 0.06 µM | inhibition at 10 µM [1]: 95.5 ± 1.25% | IC50 [2]: 12.41 ± 0.05 µM | inhibition at 10 µM [2]: 90.76 ± 0.29% | IC50 [3]: 16.3 ± 0.24 µM | inhibition at 10 µM [3]: 88.68 ± 0.52% | IC50 [4]: 4.42 ± 1.67 µM | IC50 [5]: 5.26 ± 0.49 µM | SI (selectivity index) [5]: 0.84 | IC50 [7]: > 10 µM

SMILES: Cn1c(=O)c(C(=O)N/N=C/c2ccc3c(c2)OCO3)nc2ccccc21 [Compound 2d, (E)-N′-(benzo[d][1,3]dioxol-5-ylmethylene)-4-methyl-3-oxo-3,4-dihydroquinoxaline-2-carbohydrazide]
inhibition at 10 µM [1]: 50.14 ± 0.46% | inhibition at 10 µM [2]: 56.95 ± 0.35% | inhibition at 10 µM [3]: 59.5 ± 0.78%

IC50 [1]: 0.9 ± 0.02 µM | IC50 [2]: 1.21 ± 0.08 µM | IC50 [3]: 0.51 ± 0.03 µM
SMILES: COc1cccc2c1C(=O)c1c(O)c3c(c(O)c1C2=O)C[C@@](O)(C(=O)CO)C[C@@H]3O[C@H]1C[C@H](N)[C@H](O)[C@H](C)O1 [Doxorubicin, doxorubicin, reference compound]

SMILES: CC(=O)C/C(=N/NC(=O)c1nc2ccccc2n(C)c1=O)c1ccccc1 [Compound 9, (Z)-4-methyl-3-oxo-N′-(3-oxo-1-phenylbutylidene)-3,4-dihydroquinoxaline-2-carbohydrazide]
IC50 [1]: 6.84 ± 0.07 µM | inhibition at 10 µM [1]: 92.97 ± 0.54% | IC50 [2]: 5.54 ± 0.27 µM | inhibition at 10 µM [2]: 96.83 ± 0.29% | IC50 [3]: 8.75 ± 0.25 µM | inhibition at 10 µM [3]: 97.89 ± 0.69% | IC50 [4]: 38.7 ± 1.27 µM | IC50 [5]: 2.21 ± 0.14 µM | SI (selectivity index) [5]: 17.52 | inhibition at 10 µM [7]: ≥ 88.7%

SMILES: Cn1c(=O)c(C(=O)N/N=C2\C(=O)Nc3ccccc32)nc2ccccc21 [Compound 4a, (Z)-4-Methyl-3-oxo-N′-(2-oxoindolin-3-ylidene)-3,4-dihydroquinoxaline-2-carbohydrazide]
IC50 [1]: 4.42 ± 0.12 µM | inhibition at 10 µM [1]: 90.14 ± 0.76% | IC50 [2]: 4.23 ± 0.09 µM | inhibition at 10 µM [2]: 91.82 ± 0.35% | IC50 [3]: 4.54 ± 0.19 µM | inhibition at 10 µM [3]: 92.79 ± 0.15% | IC50 [4]: 28.8 ± 1.02 µM | IC50 [5]: 1.17 ± 0.15 µM | SI (selectivity index) [5]: 24.61 | IC50 [6]: 0.3 ± 0.01 µM | IC50 [7]: 3.21 to 4.54 µM | inhibition at 10 µM [7]: ≥ 88.7%

SMILES: CN1c2ccccc2N=C(C(=O)NN)C1N=N (stereo not drawn) [Compound 10, 3-Diazenyl-4-methyl-3,4-dihydroquinoxaline-2-carbohydrazide]
inhibition at 10 µM [1]: 49.8 ± 0.86% | inhibition at 10 µM [2]: 52.4 ± 0.69% | inhibition at 10 µM [3]: 86.6 ± 1.31%
